Reference: patent publication US20260242419A1, “A CYCLIC PEPTIDE FOR TRAPPING INTERLEUKIN-1 BETA” (Merck Sharp & Dohme LLC, priority 2023, published 2026)
Starred links: 1 amine or outer side, 2 acyl side, 3 side chain; linkers in the order of their positions; H or OH if unused. Non-standard residues stand in square brackets, D forms with d. Residues, ends and D or L forms follow the SMILES beside them. dPro(4R-(4-pyridylmethyl)) = O=C(O)[C@H]1C[C@@H](Cc2ccncc2)CN1; dPro(3S-(4-Br-benzyl)) = O=C(O)[C@@H]1NCC[C@@H]1Cc1ccc(Br)cc1; Trp(βS-Me,4-F) = C[C@@H](c1c[nH]c2cccc(F)c12)[C@H](N)C(=O)O; X35 = O=C(O)C12CC(c3ccc(C[C@H](N[*:1])C(=O)[*:2])cc3)(C1)C2; Bip(4'-COOH) = N[C@@H](Cc1ccc(-c2ccc(C(=O)O)cc2)cc1)C(=O)O; Ala(1-bicyclo(1.1.1)pentyl) = N[C@@H](CC12CC(C1)C2)C(=O)O; dPro(4R-Bzl(4-F)) = O=C(O)[C@H]1C[C@@H](Cc2ccc(F)cc2)CN1; Ala(pyrimidin-5-yl) = N[C@@H](Cc1cncnc1)C(=O)O; Phe(4-COOH) = N[C@@H](Cc1ccc(C(=O)O)cc1)C(=O)O; Bip = N[C@@H](Cc1ccc(-c2ccccc2)cc1)C(=O)O; Pro(cis-4-F) = O=C(O)[C@@H]1C[C@H](F)CN1; X10 = C[C@@](CCN)(N[*:1])C(=O)[*:2]; d(αMeD) = C[C@@](N)(CC(=O)O)C(=O)O; 2Pal = N[C@@H](Cc1ccccn1)C(=O)O; 4Pal = N[C@@H](Cc1ccncc1)C(=O)O; αMeS = C[C@](N)(CO)C(=O)O; Dab = NCC[C@H](N)C(=O)O; Dap = NC[C@H](N)C(=O)O; Aib = CC(C)(N)C(=O)O

Molecular target: T1, IL-1β (Homo sapiens, UniProt P01584)
T1 construct: purchased BioLegend 579404
T1 sequence (P01584 117-269): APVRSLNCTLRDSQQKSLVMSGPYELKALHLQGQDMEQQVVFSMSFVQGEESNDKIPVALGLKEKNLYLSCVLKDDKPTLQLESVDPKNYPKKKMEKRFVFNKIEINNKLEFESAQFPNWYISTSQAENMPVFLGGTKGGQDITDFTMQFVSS
Assay: IL-6 assay in MRC5 cells: inhibition of IL-1β induced IL-6 secretion (AlphaLISA)
Assay type: cell-based
Conditions: inhibition of IL-1β induced IL-6 secretion in MRC5 cells; read-out: MRC5 IC50
In short: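 Compound was pre-incubated 1 h at ambient temperature with recombinant human IL-1β at 2λ EC80 before adding human lung fibroblast MRC5 cells (3000/well) in EMEM with 0.025% BSA. After overnight culture at 37 °C, 5% CO2, secreted IL-6 in conditioned medium was measured by AlphaLISA; IC50 from 4-parameter logistic fits.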

| IC50 [nM] | SMILES |
| --- | --- |
| 0.039 | C[C@@H](c1c[nH]c2cccc(F)c12)[C@@H]1NC(=O)[C@@H]2C[C@H](F)CN2C(=O)CNC(=O)[C@H](Cc2ccc(C(=O)O)cc2)NC(=O)[C@H](Cc2ccncc2)NC(=O)[C@H](Cc2ccc(-c3ccc(C(=O)O)cc3)cc2)NC(=O)[C@H]2C[C@@H](Cc3ccc(F)cc3)CN2C(=O)CNC(=O)[C@H](CCN)NC(=O)[C@H](CCC(N)=O)NC(=O)[C@H](Cc2cncnc2)NC(=O)[C@](C)(CCN)NC(=O)[C@H](Cc2c[nH]c3ccccc23)NC(=O)[C@H](CO)NC(=O)C(C)(C)NC1=O [Example 130] (cyclo([Bip(4'-COOH)][4Pal][Phe(4-COOH)]G[Pro(cis-4-F)][Trp(βS-Me,4-F)][Aib]SW[X10][Ala(pyrimidin-5-yl)]Q[Dab]G[dPro(4R-Bzl(4-F))])) |
| 0.023 | C[C@@H](c1c[nH]c2cccc(F)c12)[C@@H]1NC(=O)[C@@H]2C[C@H](F)CN2C(=O)CNC(=O)[C@H](Cc2ccc(C(=O)O)cc2)NC(=O)[C@H](Cc2ccncc2)NC(=O)[C@H](Cc2ccc(-c3ccc(C(=O)O)cc3)cc2)NC(=O)[C@H]2C[C@@H](Cc3ccc(F)cc3)CN2C(=O)CNC(=O)[C@H](CCN)NC(=O)[C@H](CCC(N)=O)NC(=O)[C@H](Cc2ccncc2)NC(=O)C(C)(C)NC(=O)[C@H](Cc2c[nH]c3ccccc23)NC(=O)[C@H](CCC(=O)O)NC(=O)C(C)(C)NC1=O [Example 2] (cyclo([Bip(4'-COOH)][4Pal][Phe(4-COOH)]G[Pro(cis-4-F)][Trp(βS-Me,4-F)][Aib]EW[Aib][4Pal]Q[Dab]G[dPro(4R-Bzl(4-F))])) |
| 0.026 | C[C@@H](c1c[nH]c2cccc(F)c12)[C@@H]1NC(=O)[C@@H]2C[C@H](F)CN2C(=O)CNC(=O)[C@H](Cc2ccc(C(=O)O)cc2)NC(=O)[C@H](CC23CC(C2)C3)NC(=O)[C@H](Cc2ccc(-c3ccccc3)cc2)NC(=O)[C@H]2C[C@@H](Cc3ccncc3)CN2C(=O)CNC(=O)[C@H](CCN)NC(=O)[C@H](CCC(N)=O)NC(=O)[C@H](Cc2cncnc2)NC(=O)[C@@](C)(CC(=O)O)NC(=O)[C@H](Cc2c[nH]c3ccccc23)NC(=O)[C@H](CO)NC(=O)C(C)(C)NC1=O [Example 343] (cyclo([Bip][Ala(1-bicyclo(1.1.1)pentyl)][Phe(4-COOH)]G[Pro(cis-4-F)][Trp(βS-Me,4-F)][Aib]SW[d(αMeD)][Ala(pyrimidin-5-yl)]Q[Dab]G[dPro(4R-(4-pyridylmethyl))])) |
| 0.031 | C[C@@H](c1c[nH]c2cccc(F)c12)[C@@H]1NC(=O)[C@@H]2C[C@H](F)CN2C(=O)CNC(=O)[C@H](Cc2ccc(C(=O)O)cc2)NC(=O)[C@H](Cc2ccncc2)NC(=O)[C@H](Cc2ccc(-c3ccc(C(=O)O)cc3)cc2)NC(=O)[C@H]2C[C@@H](Cc3ccc(F)cc3)CN2C(=O)CNC(=O)[C@H](CCN)NC(=O)[C@H](CCC(N)=O)NC(=O)[C@H](Cc2ccccn2)NC(=O)C(C)(C)NC(=O)[C@H](Cc2c[nH]c3ccccc23)NC(=O)[C@H](CCC(=O)O)NC(=O)C(C)(C)NC1=O [Example 73] (cyclo([Bip(4'-COOH)][4Pal][Phe(4-COOH)]G[Pro(cis-4-F)][Trp(βS-Me,4-F)][Aib]EW[Aib][2Pal]Q[Dab]G[dPro(4R-Bzl(4-F))])) |
| 0.031 | C[C@@H](c1c[nH]c2cccc(F)c12)[C@@H]1NC(=O)[C@@H]2C[C@H](F)CN2C(=O)CNC(=O)[C@H](Cc2ccc(C(=O)O)cc2)NC(=O)[C@H](CC23CC(C2)C3)NC(=O)[C@H](Cc2ccc(C34CC(C(=O)O)(C3)C4)cc2)NC(=O)[C@H]2C[C@@H](Cc3ccc(F)cc3)CN2C(=O)CNC(=O)[C@H](CCN)NC(=O)[C@H](CCC(N)=O)NC(=O)[C@H](Cc2cncnc2)NC(=O)C(C)(C)NC(=O)[C@H](Cc2c[nH]c3ccccc23)NC(=O)[C@H](CCC(=O)O)NC(=O)C(C)(C)NC1=O [Example 99] (cyclo([Aib]EW[Aib][Ala(pyrimidin-5-yl)]Q[Dab]G[dPro(4R-Bzl(4-F))][X35][Ala(1-bicyclo(1.1.1)pentyl)][Phe(4-COOH)]G[Pro(cis-4-F)][Trp(βS-Me,4-F)])) |
| 0.019 | C[C@@H](c1c[nH]c2cccc(F)c12)[C@@H]1NC(=O)[C@@H]2C[C@H](F)CN2C(=O)CNC(=O)[C@H](Cc2ccc(C(=O)O)cc2)NC(=O)[C@H](Cc2ccncc2)NC(=O)[C@H](Cc2ccc(-c3ccc(C(=O)O)cc3)cc2)NC(=O)[C@H]2[C@@H](Cc3ccc(Br)cc3)CCN2C(=O)CNC(=O)[C@H](CN)NC(=O)[C@H](CCC(N)=O)NC(=O)[C@H](Cc2cncnc2)NC(=O)C(C)(C)NC(=O)[C@H](Cc2c[nH]c3ccccc23)NC(=O)[C@H](CCC(=O)O)NC(=O)C(C)(C)NC1=O [Example 150] (cyclo([Bip(4'-COOH)][4Pal][Phe(4-COOH)]G[Pro(cis-4-F)][Trp(βS-Me,4-F)][Aib]EW[Aib][Ala(pyrimidin-5-yl)]Q[Dap]G[dPro(3S-(4-Br-benzyl))])) |
| 0.027 | C[C@@H](c1c[nH]c2cccc(F)c12)[C@@H]1NC(=O)[C@@H]2C[C@H](F)CN2C(=O)CNC(=O)[C@H](Cc2ccc(C(=O)O)cc2)NC(=O)[C@H](Cc2ccncc2)NC(=O)[C@H](Cc2ccc(-c3ccc(C(=O)O)cc3)cc2)NC(=O)[C@H]2C[C@@H](Cc3ccc(F)cc3)CN2C(=O)CNC(=O)[C@H](CCN)NC(=O)[C@H](CCC(N)=O)NC(=O)[C@H](Cc2cncnc2)NC(=O)[C@](C)(CO)NC(=O)[C@H](Cc2c[nH]c3ccccc23)NC(=O)[C@H](CCC(=O)O)NC(=O)C(C)(C)NC1=O [Example 18] (cyclo([Bip(4'-COOH)][4Pal][Phe(4-COOH)]G[Pro(cis-4-F)][Trp(βS-Me,4-F)][Aib]EW[αMeS][Ala(pyrimidin-5-yl)]Q[Dab]G[dPro(4R-Bzl(4-F))])) |
